The target in assay [1] is T1, NMBR (Homo sapiens, UniProt P28336).
T1 construct: HA; expressed in transfected cells; host or cells: HEK293
Put plainly: Radioligand binding (competition). The following applies: [125I]-Tyr-NMB. On the procedure: HEK293 cells were seeded in a 10-cm tissue culture dish at a density of 10^6 cells per dish and grown overnight at 37°C in growth medium. The following morning, 5 μg of different species’ BRS3 plasmids were transfected. After 6 h, the medium was replaced with growth medium. Cells were maintained at 37°C in a 5% CO2 atmosphere and used 48 h later for binding assays. The positive control group included transfected GRPR and NMBR; the test group consisted of transfected BRS3 from different species. […] The cell concentration was adjusted to between 0.05 and 4 × 10^6 cells/ml for each receptor such that less than 20% of the total added radioactive ligand was bound during the incubation, and the results were compared to cells transfected with GRPR or NMBR adjusted in concentration to bind a similar amount of ligand. After the incubation, 100 μl aliquots were added to 1.5-ml microfuge tubes, which contained 100 μl of binding buffer to determine the total radioactivity. […] The amount of radioactivity bound to the cells was measured in a Cobra II Gamma counter (Packard Instruments). Binding was expressed as the percentage of total radioactivity that was associated with the cell pellet. […] Each point was measured in duplicate, and each experiment was replicated at least four times. […] All the experiment data were calculated using 1 pM ligand-treated as 100% control.

Assay [2] deals with T2, GRPR (Homo sapiens, UniProt P30550).
T2 construct: HA; expressed in transfected cells; host or cells: HEK293
T2 sequence (P30550 whole entry, species assumed): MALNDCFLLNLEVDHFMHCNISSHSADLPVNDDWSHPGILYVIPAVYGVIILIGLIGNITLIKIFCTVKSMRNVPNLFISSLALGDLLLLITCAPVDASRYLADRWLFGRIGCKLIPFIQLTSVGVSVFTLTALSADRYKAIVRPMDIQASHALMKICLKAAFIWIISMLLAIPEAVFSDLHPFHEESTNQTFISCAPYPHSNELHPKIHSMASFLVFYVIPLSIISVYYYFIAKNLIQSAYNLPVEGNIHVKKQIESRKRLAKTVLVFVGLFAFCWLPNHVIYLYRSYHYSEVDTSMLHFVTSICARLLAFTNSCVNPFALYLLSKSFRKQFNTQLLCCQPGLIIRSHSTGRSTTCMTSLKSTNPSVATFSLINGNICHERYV
Put plainly: Intracellular calcium assay. To be noted: 10 nM peptide, HEK293, Fluo8, GRPR. Type of assay: cell-based. As for the experimental part: Intracellular calcium was measured using the non-wash calcium assay Fluo8 kit (ab112129, Abcam) according to the manufacturer’s instructions. Briefly, HEK293 cells were seeded in 24-well plates and were transfected with GRPR, NMBR, BRS3, or the empty vector plasmid pcDNA3.1-V5-His (300 ng) and incubated overnight at 37°C with 5% CO2. The next day, the cells were replated into a 96-well assay plate (black plate and clear bottom). After 12 h, growth media were aspirated, and calcium dye was added. […] The basal fluorescence intensity was recorded 15 times at 1 Hz for […]. The results were normalized to the average basal fluorescence intensity in ratio, and the peak response was used for the result calculation. Calcium fold was calculated using no stimulation data as standard value.
(A change in cytosolic calcium serves as a functional read-out for many receptors and channels.)

T1 sequence (P28336 whole entry, species assumed): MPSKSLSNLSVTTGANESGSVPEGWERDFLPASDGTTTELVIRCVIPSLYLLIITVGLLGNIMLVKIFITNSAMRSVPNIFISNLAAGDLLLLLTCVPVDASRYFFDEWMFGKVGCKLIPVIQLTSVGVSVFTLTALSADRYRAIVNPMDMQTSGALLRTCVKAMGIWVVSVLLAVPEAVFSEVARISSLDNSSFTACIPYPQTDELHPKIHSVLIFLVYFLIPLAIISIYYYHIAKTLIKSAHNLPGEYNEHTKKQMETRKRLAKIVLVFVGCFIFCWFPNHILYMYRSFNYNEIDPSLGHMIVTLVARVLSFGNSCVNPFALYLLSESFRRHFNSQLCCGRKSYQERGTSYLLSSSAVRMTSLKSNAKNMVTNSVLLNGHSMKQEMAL

For the substance “GSHWAVGHLM-NH2 [GRP, gastrin-releasing peptide]”, the “Inhibition of NMBR–NMB binding (in words)” value in assay [1] is recorded as “cannot inhibit”. The Calcium fold in assay [2] (replicate 1) amounted to 5.512 fold; in assay [2] (replicate 2), 5.7711 fold; in assay [2] (replicate 3), 5.9191 fold.

These data come from article PMC6422423, “Constitutively active BRS3 is a genuinely orphan GPCR in placental mammals” (PLoS Biology, 2019).
